According to article PMC9689682, “Tenebrio molitor Proteins-Derived DPP-4 Inhibitory Peptides: Preparation, Identification, and Molecular Binding Mechanism” (Foods, 2022):

Columns and labels:
[1] = biological target: T1, DPP-4 (Homo sapiens, UniProt P27487); experiment: DPP-4 inhibition activity assay (Gly-Pro-p-nitroanilide substrate, OD 405 nm); type: biochemical; details: final concentration 1 mg/mL; n = 3; Figure 4A
T1 construct: purchased Millipore Sigma (Burlington, MA, USA)
Procedure: The inhibition of each sample on DPP-4 was assayed according to a previously described method. Briefly, 20 μL of each sample solution, 50 μL of Tris-HCl buffer (pH8.0, 100 mM), and 100 μL of substrate were mixed in a well of a 96-well plate, then incubated at 37 °C for 10 min. Afterward, the 30 μL of DPP-IV solution was added, then placed at 37 °C for 40 min incubation. Afterward, the optical density was recorded at 405 nm using a BioTek Synergy H1 microplate reader (BioTek, Winooski, VT, USA). The inhibitory effect of the samples on DPP-4 was calculated according to a previously described equation [27].

[2] = biological target: T1, DPP-4; details: Bombyx mori protein-derived peptide; cited from earlier work
Excerpt: GLP-1 and GIP are two crucial incretins, which have mainly contributed to the insulin response after meal intake. Suppressing the activity of DPP-4 can increase the level of active incretins, thereby decreasing blood glucose in diabetic patients. Based on the consideration of the adverse effects caused by the chemically synthesized inhibitors, some peptides with inhibitory effects on DPP-4 activity obtained from natural proteins, including milk, egg, grain, edible insects, and aquatic proteins have been widely reported. In the current study, the flavourzyme effectivel ... || It has been reported that the length and size of peptides influence their inhibitory activity against DPP-4.

T1 sequence (P27487 whole entry): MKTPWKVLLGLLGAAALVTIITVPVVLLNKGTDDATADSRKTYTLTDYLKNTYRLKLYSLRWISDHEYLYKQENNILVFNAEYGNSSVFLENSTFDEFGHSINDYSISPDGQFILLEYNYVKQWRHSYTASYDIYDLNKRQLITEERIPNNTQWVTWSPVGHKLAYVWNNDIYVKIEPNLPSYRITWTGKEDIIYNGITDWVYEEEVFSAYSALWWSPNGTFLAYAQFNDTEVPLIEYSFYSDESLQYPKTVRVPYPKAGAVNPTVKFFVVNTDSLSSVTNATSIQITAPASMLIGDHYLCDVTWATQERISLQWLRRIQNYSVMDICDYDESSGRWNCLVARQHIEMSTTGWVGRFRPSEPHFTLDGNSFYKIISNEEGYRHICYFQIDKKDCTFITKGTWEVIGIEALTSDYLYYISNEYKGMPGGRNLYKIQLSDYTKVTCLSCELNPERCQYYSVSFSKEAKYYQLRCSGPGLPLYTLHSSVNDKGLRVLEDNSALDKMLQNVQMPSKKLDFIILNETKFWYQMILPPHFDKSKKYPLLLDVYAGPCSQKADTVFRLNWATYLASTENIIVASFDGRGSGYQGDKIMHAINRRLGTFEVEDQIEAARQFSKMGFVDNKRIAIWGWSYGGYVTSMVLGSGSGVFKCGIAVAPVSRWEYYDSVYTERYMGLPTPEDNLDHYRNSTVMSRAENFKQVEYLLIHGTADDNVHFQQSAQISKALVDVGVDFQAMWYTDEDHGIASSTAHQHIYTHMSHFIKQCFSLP

Row | Substance | inhibitory effect of the synthesized peptides on DPP-4 activity (in words) [1] | IC50 value against DPP-4 [2]
1 | SNGLPFPTRP [synthesized peptide identified from T. molitor flavourzyme hydrolysate; origin Hexamerin 1] | weak inhibitory activity | –
2 | NEAYFGFPR [synthesized peptide identified from T. molitor flavourzyme hydrolysate; origin Hexamerin 1] | weak inhibitory activity | –
3 | GLQFPTRPNF [synthesized peptide; origin 86 kDa early-staged encapsulation inducing protein] | weak inhibitory activity | –
4 | LPAVTIR | – | 148 µg/mL
